Results reported in patent US20140363489A1, “TREATMENT OF EYE DISEASE” (Panacea Pharmaceuticals, priority 2013, published 2014).
“Also recorded” adds a separate entry of the source. Like-named read-outs stand apart in the source and are kept apart here.

How the values were obtained:
retinal degeneration [1] = settings: RSC rats; cited from earlier work
retinal degeneration [2] = settings: RCS, P23H, S334ter, photo stress rats, rd mice, CAR model rats (Ohguro, 2008); cited from earlier work
[3] = tested on: photoreceptor neurons of rd1 mouse retina; test: ex vivo rd1 mouse retina culture, photoreceptor rows and nucleus numbers; format: cell-based; settings: 10 μM
Protocol: The effect of PAN-811 was examined in an ex vivo model, in which retinas were isolated from rd1 mouse at PN7 and treated in culture with 0, 2 and 10 μM PAN-811 for 21 days (equal to PN28).
The one model of RP study is rd1 mouse in which, like in RP patient, the gene for β-phospodiesterase is spontaneously mutated in rod photoreceptor neurons results in the rod cell loss. The apoptosis starts at postnatal day (PN) 9 to 10, peaks at PN13 and is completed at PN21.
To test the effect PAN-811, retinas from rd1 (C3H strain) mice at PN7 were cultured in the presence of 0 (n=6), 2 (n=6) and 10 (n=7) μM PAN-811. After 21 days in vitro (equal to PN28), the hematoxylin/eosin stained retinal section was analyzed at five positions; the very center of the retina plus at two positions on each side of this, approximately 200 μm apart, and referred to as mid-periphery and periphery, respectively. The retina from the rd1 mouse commonly carried only a thin layer of photoreceptor neurons (FIG. 1A—photo on left). […] Quantitatively, a control group has two layers of photoreceptor neurons at center, mid-periphery or pheriphery (FIG. 1B). PAN-811 at a concentration of 10 μM, but not 2 μM, increased the row numbers from 2 to 3 (P<0.05) at all measured areas.
Nucleus numbers for photoreceptor neurons that locate in center (n=7), mid-periphery (n=6) and periphery (n=6) were counted on photos (within 35 mm length of rode photoreceptor layer after magnification) by ImageJ software (NIH) and the data were expressed as percentage of untreated control. […]
Twenty retinas from 10 rd1 mice (C3H strain) were dissected out at PN7 and mounted flat on HA mixed cellulose, 0.45 μm membranes fitted to culture dish inserts (Millipore Corp). […] The sections were analyzed and photographed under a microscope, blindly with respect to origin The rows of photoreceptors in the outer nuclear layer of the retina were quantitatively evaluated in a total of at least 30 sections for each preparation (4 slides from each preparation and 8 sections from each slide). […]

ischemic stroke = ischemic stroke model (Jiang et al., 2006); cited from earlier work
[4] = cited from earlier work

**Q.** Which “effect against retinal degeneration” value (retinal degeneration [1]) does the source give for `COC(=O)C1=C(C#N)NC(C)=C(C(=O)OC(C)C)C1c1cccc([N+](=O)[O-])c1` (stereo not shown) [Nilvadipine] here?
**A.** beneficial effect against retinal degeneration

**Q.** And the “effect against retinal degeneration” value (retinal degeneration [2])?
**A.** beneficial effects against retinal degeneration in all models tested

**Q.** For `NC(=S)N/N=C/c1ncccc1N` [PAN-811, 3-aminopyridine-2-carboxaldehyde thiosemicarbazone], which “increase of nucleus numbers of photoreceptor neurons vs untreated control” value ([3]; 21 days in vitro, center, mid-periphery and periphery, P<0.01) is on record?
**A.** about 50%

**Q.** And the “row numbers of photoreceptor neurons” value ([3]; 21 days in vitro, center, mid-periphery, periphery, control 2 rows, P<0.05)?
**A.** 3

**Q.** And the “loss of photoreceptor neurons / thickness of photoreceptor layer” value ([3]; retinas from rd1 mouse at PN7, 21 days in culture)?
**A.** prevents loss of photoreceptor neurons; also recorded: prevented the loss of photoreceptor neurons; also recorded: thicker

**Q.** And the neuroprotective activity (ischemic stroke)?
**A.** potent neuroprotective activity

B1: CNTF: Ciliary neurotrophic factor, neurotrophic factor delivered into eye (protein, UniProt P26441 1-200, looked up)
Ciliary neurotrophic factor: MAFTEHSPLTPHRRDLCSRSIWLARKIRSDLTALTESYVKHQGLNKNINLDSADGMPVASTDQWSELTEAERLQENLQAYRTFHVLLARLLEDQQVHFTPTEGDFHQAIHTLLLQVAAFAYQIEELMILLEYKIPRNEADGMPINVGDGGLFEKKLWGLKVLQELSQWTVRSIHDLRFISSHQTGIPARGSHYIANNKKM
**Q.** With B1 as the molecule, how does the half-life in vivo [4] read?
**A.** 2 to 6.67 h
